Source: US6982148B2, “Progressive elevated gene-3 (PEG-3) induces aggressive cancer phenotype and regulates angiogenesis” (The Trustees of Columbia University in the City of New York, priority 1999, dated 2006)

What was measured:
[1] = test system: PEG-3; test: PEG-3 mRNA and transcription after DNA damage; format: cell-based, rat; settings: following DNA damage
Excerpt: The specific role of the gadd34/MyD116 gene in cellular physiology is not known. Like hamster gadd34 and its murine homologue MyD116, PEG-3 steady-state mRNA and RNA transcriptional levels are increased following DNA damage by methyl methanesulfonate (MMS) and gamma irradiation (γIR) (FIGS. 2 and 5 and data not shown). In contrast, nuclear run-on assays indicate that only the PEG-3 gene is transcriptionally active (transcribed) as a function of transformation progression (FIG. 5). This is apparent in CREF cells transformed by Ha-ras and in E11-NMT and various E11-NMT subclones either expressing or not expressing the progression phenotype (FIG. 5). The gadd34/MyD116 gene, as well as the gadd45, MyD118 and gadd153 genes, encode acidic proteins with very similar and unusual charge characteristics (24). PEG-3 also encodes a putative protein with acidic properties similar to the gadd and MyD genes (FIG. 3). The carboxyl-terminal domain of the murine MyD116 protein is homologous to the corresponding domain of the herpes simplex virus 1 γ134.5 protein, that prevents the premature shutoff of total protein synthesis in infected human cells (35,36). Replacement of the carboxyl-terminal domain of γ134.5 with the homologous region from MyD116 results in a restoration of function to the herpes viral genome, i.e., prevention of early host shutoff of protein synthesis (36). […]

[2] = test system: VEGF; test: VEGF transcription and steady-state mRNA in E11 cells after transient PEG-3 transfection; format: cell-based, rat; settings: added 4 hr after PEG-3 transfection of E11 cells
Protocol: Transfection of PEG-3 into E11 cells induces steady-state VEGF mRNA. E11 cells were transfected with a pZeoSV/PEG-3 or pZeo SV vector, 4 hr later replicate cultures received cycloheximide and 30 hr later total RNA was extracted and analyzed by Northern blotting for PEG-3, VEGF, Ad5 ElA and GAPDH mRNA expression.
Nucleic Acid Analyses. Steady-state levels of PEG-3, VEGF, ElA, and GAPHD mRNA were determined by Northern analysis of total cytoplasmic RNA using appropriate multiprimed ^32P-labeled cloned cDNA probes as described previously (18,19). Briefly, 10 μg of total RNA from the different cell types were electrophoresed in a 1% agarose gel, transferred to a nylon membrane and hybridized with the different ^32p-labeled CDNA fragments. The membrane was stripped and hybridized with indicated probes sequentially. […]
To examine further the relationship between PEG-3 and VEGF, experiments were performed to determined if transient ectopic expression of PEG-3 in rodent and human tumor cells could elevate VEGF expression. E11 cells were transfected with a PEG-3 expression construct, nuclei were isolated and evaluated for elevated VEGF transcription and total cytoplasmic RNA was isolated and steady-state VEGF mRNA levels were determined by Northern blotting (FIG. 8 and data not shown). […]

SMILES | PEG-3 steady-state mRNA and RNA transcriptional levels [1] | Effect on PEG-3 induced elevation of VEGF transcription and RNA [2]
COS(C)(=O)=O [MMS, methyl methanesulfonate] | increased | 
C[C@@H]1C[C@@H]([C@H](O)CC2CC(=O)NC(=O)C2)C(=O)[C@@H](C)C1 [cycloheximide] |  | prevented
